Results as given in ChEMBL document CHEMBL6087488, “Development of the First-in-Class FEM1B-Recruiting Histone Deacetylase Degraders” (J Med Chem, 2025).
pEC50, pIC50: −log10 of the molar value. Activity calls are given as the source filed them. The calls are words filed in the database; no cut-off is given here.

Legend:
MM1.S [1] = experiment: Antiproliferative activity against human MM1.S cells assessed as cell viability measured after 72 hrs by CellTiter-Glo cell viability assay; format: functional, cell-based
[2] = molecular target: Protein fem-1 homolog B/Protein deacetylase HDAC6 (Homo sapiens) (UniProt Q9UBN7+Q9UK73); experiment: PROTAC activity at FEM1B/HDAC6 in human MM1.S cell lysate assessed as protein degradation at 1 uM measured after 24 hrs by Western immunoassay; format: subcellular
[3] = molecular target: Protein fem-1 homolog B/Histone deacetylase 4 (Homo sapiens) (UniProt P56524+Q9UK73); experiment: PROTAC activity at FEM1B/HDAC4 in human MM1.S cell lysate assessed as protein degradation at 1 uM measured after 24 hrs by Western immunoassay; format: subcellular
[4] = molecular target: T1, Protein fem-1 homolog B/Histone deacetylase 1 (Homo sapiens, UniProt Q13547+Q9UK73); experiment: PROTAC activity at FEM1B/HDAC1 in human MM1.S cell lysate assessed as initial degradation measured after 24 hrs by Western immunoassay; format: subcellular
Target sequence in this assay (Q13547 whole entry): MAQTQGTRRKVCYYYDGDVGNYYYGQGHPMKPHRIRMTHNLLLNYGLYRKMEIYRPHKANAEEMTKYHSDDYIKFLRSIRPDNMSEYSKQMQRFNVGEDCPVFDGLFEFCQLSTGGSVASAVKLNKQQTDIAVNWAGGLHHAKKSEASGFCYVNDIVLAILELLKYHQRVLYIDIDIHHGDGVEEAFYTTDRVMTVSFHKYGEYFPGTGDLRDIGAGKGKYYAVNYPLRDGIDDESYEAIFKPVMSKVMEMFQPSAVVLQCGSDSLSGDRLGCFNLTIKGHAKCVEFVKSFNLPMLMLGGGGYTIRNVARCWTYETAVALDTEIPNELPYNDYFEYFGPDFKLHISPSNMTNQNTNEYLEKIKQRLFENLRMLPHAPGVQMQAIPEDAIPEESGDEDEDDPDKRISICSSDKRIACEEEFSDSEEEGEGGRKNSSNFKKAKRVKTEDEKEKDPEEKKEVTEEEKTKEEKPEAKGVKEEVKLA
Target sequence in this assay (Q9UK73 whole entry): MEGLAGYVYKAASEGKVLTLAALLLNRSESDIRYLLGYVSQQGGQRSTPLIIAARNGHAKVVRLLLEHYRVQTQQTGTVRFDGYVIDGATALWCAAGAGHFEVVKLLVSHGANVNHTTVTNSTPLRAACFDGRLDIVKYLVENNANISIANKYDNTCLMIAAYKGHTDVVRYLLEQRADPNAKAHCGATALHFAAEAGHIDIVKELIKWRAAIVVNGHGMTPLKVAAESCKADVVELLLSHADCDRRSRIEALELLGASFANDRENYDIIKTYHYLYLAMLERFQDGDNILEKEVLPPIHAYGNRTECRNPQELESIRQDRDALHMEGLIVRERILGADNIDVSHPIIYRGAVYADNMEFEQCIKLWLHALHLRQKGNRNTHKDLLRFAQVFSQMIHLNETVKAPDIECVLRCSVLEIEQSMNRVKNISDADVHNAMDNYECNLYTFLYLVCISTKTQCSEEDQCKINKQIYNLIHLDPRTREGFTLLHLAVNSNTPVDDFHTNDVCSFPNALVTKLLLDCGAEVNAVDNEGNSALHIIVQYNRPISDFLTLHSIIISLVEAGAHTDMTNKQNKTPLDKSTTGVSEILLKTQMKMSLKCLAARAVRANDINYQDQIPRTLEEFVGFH

MM1.S [5] = experiment: Induction of apoptosis in human MM1.S cells assessed as increase in early apoptotic cells at 10 uM measured after 48 hrs by annexin V-FITC/PI staining based assay; format: functional, cell-based
[6] = molecular target: T1, Protein fem-1 homolog B/Histone deacetylase 1; experiment: PROTAC activity at FEM1B/HDAC1 in human MM.1S cell lysate assessed as maximal initial degradation at measured after 24 hrs by Western immunoassay relative to control; format: subcellular; settings: MM1.S
Target sequence in this assay (Q13547 whole entry, looked up): as the sequence (Q13547 whole entry) above
Target sequence in this assay (Q9UK73 whole entry, looked up): as the sequence (Q9UK73 whole entry) above

[7] = molecular target: Protein fem-1 homolog B/Histone deacetylase 2 (Homo sapiens) (UniProt Q92769+Q9UK73); experiment: PROTAC activity at FEM1B/HDAC2 in human MM1.S cell lysate assessed as protein degradation at 1 uM measured after 24 hrs by Western immunoassay; format: subcellular
U-87 MG [8] = experiment: Antiproliferative activity against human U-87 MG cells assessed as cell viability measured after 72 hrs incubation by MTT assay; format: functional, cell-based, U-87MG ATCC
Histone deacetylase 4 = Histone deacetylase 4 (Homo sapiens, UniProt P56524); experiment: Inhibition of human HDAC4 using Boc-Lys(Tfa)-AMC as substrate incubated for 90 mins by fluorescence based assay; settings: read-out: IC50
[9] = molecular target: Protein fem-1 homolog B/Histone deacetylase 3 (Homo sapiens) (UniProt O15379+Q9UK73); experiment: PROTAC activity at FEM1B/HDAC3 in human MM1.S cell lysate assessed as protein degradation at 1 uM measured after 24 hrs by Western immunoassay; format: subcellular
MM1.S [10] = experiment: Antiproliferative activity against human MM1.S cells assessed as cell viability measured after 72 hrs incubation by MTT assay; format: functional, cell-based
MDA-MB-231 [11] = experiment: Antiproliferative activity against human MDA-MB-231 cells assessed as cell viability measured after 72 hrs incubation by MTT assay; format: functional, cell-based; settings: MDA-MB-231, 72 h
[12] = molecular target: T1, Protein fem-1 homolog B/Histone deacetylase 1; experiment: PROTAC activity at FEM1B/HDAC1 in human MM1.S cell lysate assessed as initial degradation at 1 uM measured after 24 hrs by Western immunoassay; format: subcellular
Target sequence in this assay (Q13547 whole entry, looked up): as the sequence (Q13547 whole entry) above
Target sequence in this assay (Q9UK73 whole entry, looked up): as the sequence (Q9UK73 whole entry) above

MM1.S [13] = experiment: Induction of apoptosis in human MM1.S cells assessed as increase in late apoptotic cells at 10 uM measured after 48 hrs by annexin V-FITC/PI staining based assay; format: functional, cell-based
MM1.S [14] = experiment: Induction of cell cycle arrest in human MM1.S cells assessed as reduction in cells at […] phase at 10 uM measured after 48 hrs by propidium iodide based flow cytometry; format: functional
MV4-11 = experiment: Antiproliferative activity against human MV4-11 cells assessed as cell viability measured after 72 hrs incubation by MTT assay; format: functional, cell-based; settings: MV4-11, 72 h
[15] = molecular target: T1, Protein fem-1 homolog B/Histone deacetylase 1; experiment: PROTAC activity at FEM1B/HDAC1 in human MM1.S cell lysate assessed as protein degradation at 1 uM measured after 24 hrs by Western immunoassay; format: subcellular
Target sequence in this assay (Q13547 whole entry, looked up): as the sequence (Q13547 whole entry) above
Target sequence in this assay (Q9UK73 whole entry, looked up): as the sequence (Q9UK73 whole entry) above

[16] = molecular target: T2, Protein deacetylase HDAC6 (Homo sapiens, UniProt Q9UBN7); experiment: Inhibition of human HDAC6 using ZMAL (Z-(Ac)Lys-AMC) as substrate incubated for 90 mins by fluorescence based assay
T2 sequence (Q9UBN7 whole entry): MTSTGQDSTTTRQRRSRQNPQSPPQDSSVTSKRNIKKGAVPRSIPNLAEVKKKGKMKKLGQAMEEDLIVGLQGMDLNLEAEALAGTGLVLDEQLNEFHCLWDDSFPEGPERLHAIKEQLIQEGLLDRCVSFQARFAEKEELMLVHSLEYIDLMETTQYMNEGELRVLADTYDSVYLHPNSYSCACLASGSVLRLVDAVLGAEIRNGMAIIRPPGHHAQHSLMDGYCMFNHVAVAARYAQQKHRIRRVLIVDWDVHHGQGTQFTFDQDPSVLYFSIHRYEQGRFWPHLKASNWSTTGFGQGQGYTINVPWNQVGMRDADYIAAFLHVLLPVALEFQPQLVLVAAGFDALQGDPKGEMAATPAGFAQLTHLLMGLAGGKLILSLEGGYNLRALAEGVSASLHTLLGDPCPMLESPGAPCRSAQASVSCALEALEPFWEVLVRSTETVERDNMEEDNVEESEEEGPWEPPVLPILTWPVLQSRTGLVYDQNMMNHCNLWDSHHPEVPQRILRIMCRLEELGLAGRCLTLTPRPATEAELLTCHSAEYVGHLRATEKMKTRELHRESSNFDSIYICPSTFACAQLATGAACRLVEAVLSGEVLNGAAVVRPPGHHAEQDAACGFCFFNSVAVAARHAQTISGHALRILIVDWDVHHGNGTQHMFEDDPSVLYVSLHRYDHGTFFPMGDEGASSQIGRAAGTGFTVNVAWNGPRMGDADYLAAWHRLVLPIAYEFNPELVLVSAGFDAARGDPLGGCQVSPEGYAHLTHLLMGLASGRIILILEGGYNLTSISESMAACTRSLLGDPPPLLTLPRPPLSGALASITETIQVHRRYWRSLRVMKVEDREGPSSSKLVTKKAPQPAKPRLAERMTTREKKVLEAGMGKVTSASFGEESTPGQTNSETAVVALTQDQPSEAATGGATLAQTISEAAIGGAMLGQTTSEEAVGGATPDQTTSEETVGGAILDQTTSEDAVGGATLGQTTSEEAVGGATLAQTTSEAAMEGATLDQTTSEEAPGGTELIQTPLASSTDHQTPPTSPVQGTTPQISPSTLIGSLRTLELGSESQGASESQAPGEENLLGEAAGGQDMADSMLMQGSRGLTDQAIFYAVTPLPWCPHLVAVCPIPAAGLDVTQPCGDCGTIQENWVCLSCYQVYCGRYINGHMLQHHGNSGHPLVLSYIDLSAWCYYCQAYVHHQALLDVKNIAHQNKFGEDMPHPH

[17] = molecular target: Protein fem-1 homolog B/Histone deacetylase 8 (Homo sapiens) (UniProt Q9BY41+Q9UK73); experiment: PROTAC activity at FEM1B/HDAC8 in human MM1.S cell lysate assessed as protein degradation at 1 uM measured after 24 hrs by Western immunoassay; format: subcellular
Histone deacetylase 2 = Histone deacetylase 2 (Homo sapiens, UniProt Q92769); experiment: Inhibition of human HDAC2 using ZMAL (Z-(Ac)Lys-AMC) as substrate incubated for 90 mins by fluorescence based assay
MM1.S [18] = experiment: Induction of cell cycle arrest in human MM1.s cells assessed as increase in cells at Sub-G1 phase at 10 uM measured after 48 hrs by propidium iodide based flow cytometry; format: functional
Histone deacetylase 1 = Histone deacetylase 1 (Homo sapiens, UniProt Q13547); experiment: Inhibition of human recombinant HDAC1 using ZMAL (Z-(Ac)Lys-AMC) as substrate incubated for 90 mins by fluorescence based assay
MM1.S [19] = experiment: Antiproliferative activity against human MM1.S cells assessed as cell viability up to 50 uM measured after 72 hrs incubation by MTT assay; format: functional
MM1.S [20] = experiment: Antiproliferative activity against human MM1.S cells assessed as cell viability up to 50 uM measured after 72 hrs by CellTiter-Glo cell viability assay; format: functional, cell-based
MDA-MB-231 [21] = experiment: Antiproliferative activity against human MDA-MB-231 cells assessed as cell viability up to 50 uM measured after 72 hrs incubation by MTT assay relative to control; format: functional
U-87 MG [22] = experiment: Antiproliferative activity against human U-87 MG cells assessed as cell viability up to 50 uM measured after 72 hrs incubation by MTT assay relative to control; format: functional, U-87MG ATCC

Chain of Histone deacetylase 1 (Q13547 whole entry): as the sequence (Q13547 whole entry) above
Chain of Histone deacetylase 2 (Q92769 whole entry): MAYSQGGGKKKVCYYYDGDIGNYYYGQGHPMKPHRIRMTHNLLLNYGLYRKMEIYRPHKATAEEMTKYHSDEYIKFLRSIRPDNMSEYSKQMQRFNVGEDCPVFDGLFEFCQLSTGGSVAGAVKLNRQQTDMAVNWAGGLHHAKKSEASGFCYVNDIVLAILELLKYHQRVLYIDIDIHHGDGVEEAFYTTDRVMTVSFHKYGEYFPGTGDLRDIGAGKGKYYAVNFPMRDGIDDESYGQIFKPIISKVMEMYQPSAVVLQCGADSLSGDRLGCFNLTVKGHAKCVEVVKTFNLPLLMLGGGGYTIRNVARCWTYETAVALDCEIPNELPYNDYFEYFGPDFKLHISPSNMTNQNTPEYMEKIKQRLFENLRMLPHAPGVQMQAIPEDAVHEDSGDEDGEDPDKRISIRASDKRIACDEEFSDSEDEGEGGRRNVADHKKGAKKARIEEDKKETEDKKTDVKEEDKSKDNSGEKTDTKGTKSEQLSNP
Chain of Histone deacetylase 4 (P56524 whole entry): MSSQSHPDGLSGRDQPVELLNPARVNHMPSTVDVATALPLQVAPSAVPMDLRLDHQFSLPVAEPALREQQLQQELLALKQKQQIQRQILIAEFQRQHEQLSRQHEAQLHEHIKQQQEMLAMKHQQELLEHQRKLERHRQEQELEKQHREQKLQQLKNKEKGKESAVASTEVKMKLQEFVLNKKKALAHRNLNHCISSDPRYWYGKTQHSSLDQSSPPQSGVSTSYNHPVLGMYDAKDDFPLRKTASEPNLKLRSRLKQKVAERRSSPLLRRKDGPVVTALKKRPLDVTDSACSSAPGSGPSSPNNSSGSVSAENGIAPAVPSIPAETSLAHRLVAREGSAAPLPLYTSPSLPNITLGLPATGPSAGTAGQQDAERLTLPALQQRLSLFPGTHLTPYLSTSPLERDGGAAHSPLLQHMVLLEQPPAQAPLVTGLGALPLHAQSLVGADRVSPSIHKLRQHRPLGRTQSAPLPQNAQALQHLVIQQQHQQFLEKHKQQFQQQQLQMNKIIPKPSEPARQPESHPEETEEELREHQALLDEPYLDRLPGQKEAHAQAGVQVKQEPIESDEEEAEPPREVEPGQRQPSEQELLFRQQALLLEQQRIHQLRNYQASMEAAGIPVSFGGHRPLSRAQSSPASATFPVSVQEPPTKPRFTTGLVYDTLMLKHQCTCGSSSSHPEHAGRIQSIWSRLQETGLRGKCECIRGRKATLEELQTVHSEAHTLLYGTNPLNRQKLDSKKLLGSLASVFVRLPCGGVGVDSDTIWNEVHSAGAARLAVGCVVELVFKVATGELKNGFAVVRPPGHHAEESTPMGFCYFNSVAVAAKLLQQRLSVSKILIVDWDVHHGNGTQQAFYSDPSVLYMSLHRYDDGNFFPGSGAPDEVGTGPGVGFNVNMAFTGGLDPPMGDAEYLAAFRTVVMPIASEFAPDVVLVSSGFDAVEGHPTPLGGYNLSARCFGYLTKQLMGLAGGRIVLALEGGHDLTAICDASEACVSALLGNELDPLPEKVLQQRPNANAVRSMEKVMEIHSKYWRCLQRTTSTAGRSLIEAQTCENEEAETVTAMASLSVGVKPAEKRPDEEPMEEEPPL
Chain of Protein fem-1 homolog B/Histone deacetylase 8 (Homo sapiens) (Q9BY41 whole entry, looked up): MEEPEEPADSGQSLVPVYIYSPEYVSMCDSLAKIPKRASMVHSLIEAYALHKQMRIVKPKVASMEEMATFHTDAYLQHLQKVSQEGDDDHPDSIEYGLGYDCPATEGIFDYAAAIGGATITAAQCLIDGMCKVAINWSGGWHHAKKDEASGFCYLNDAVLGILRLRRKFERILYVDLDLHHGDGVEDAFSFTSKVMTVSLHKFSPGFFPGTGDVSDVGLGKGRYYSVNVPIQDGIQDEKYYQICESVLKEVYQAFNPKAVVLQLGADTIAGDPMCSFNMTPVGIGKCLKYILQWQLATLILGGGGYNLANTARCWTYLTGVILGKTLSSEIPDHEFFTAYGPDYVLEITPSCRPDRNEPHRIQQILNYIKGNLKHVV
Chain of Protein fem-1 homolog B/Histone deacetylase 8 (Homo sapiens) (Q9UK73 whole entry, looked up): as the sequence (Q9UK73 whole entry) above
Chain of Protein fem-1 homolog B/Protein deacetylase HDAC6 (Homo sapiens) (Q9UK73 whole entry, looked up, one chain of several): as the sequence (Q9UK73 whole entry) above
Chain of Protein fem-1 homolog B/Histone deacetylase 2 (Homo sapiens) (Q92769 whole entry, looked up): as the sequence (Q92769 whole entry) above
Chain of Protein fem-1 homolog B/Histone deacetylase 2 (Homo sapiens) (Q9UK73 whole entry, looked up): as the sequence (Q9UK73 whole entry) above
Chain of Protein fem-1 homolog B/Histone deacetylase 3 (Homo sapiens) (O15379 whole entry, looked up): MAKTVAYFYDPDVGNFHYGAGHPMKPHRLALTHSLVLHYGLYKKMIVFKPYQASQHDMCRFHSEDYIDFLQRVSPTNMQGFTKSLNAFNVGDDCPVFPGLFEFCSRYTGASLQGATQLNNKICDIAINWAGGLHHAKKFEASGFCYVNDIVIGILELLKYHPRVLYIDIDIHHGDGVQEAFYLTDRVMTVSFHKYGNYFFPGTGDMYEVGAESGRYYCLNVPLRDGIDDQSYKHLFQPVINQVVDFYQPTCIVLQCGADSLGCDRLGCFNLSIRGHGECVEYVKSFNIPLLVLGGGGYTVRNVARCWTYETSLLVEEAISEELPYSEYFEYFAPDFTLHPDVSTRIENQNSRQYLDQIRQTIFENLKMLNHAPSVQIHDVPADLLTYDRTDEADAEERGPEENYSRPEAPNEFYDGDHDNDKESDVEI
Chain of Protein fem-1 homolog B/Histone deacetylase 3 (Homo sapiens) (Q9UK73 whole entry, looked up): as the sequence (Q9UK73 whole entry) above
Chain of Protein fem-1 homolog B/Histone deacetylase 4 (Homo sapiens) (P56524 whole entry, looked up): as the sequence (P56524 whole entry) above
Chain of Protein fem-1 homolog B/Histone deacetylase 4 (Homo sapiens) (Q9UK73 whole entry, looked up): as the sequence (Q9UK73 whole entry) above

Structure (SMILES)	DC50 [4]	Activity (MM1.S [5])	pEC50 (MM1.S [1]; Homo sapiens, MM1.S, 72 h)	pEC50 (U-87 MG [8])	pIC50 (Histone deacetylase 4)	pEC50 (MDA-MB-231 [11])	Activity (MM1.S [13])	Activity (MM1.S [14])	pEC50 (MV4-11)	pIC50 [16]	pIC50 (Histone deacetylase 2)	Activity (MM1.S [18])	pIC50 (Histone deacetylase 1)	other results
N#CCCN(C(=O)CCl)c1ccc2c(c1)OCCN2CC(=O)NCC(=O)Nc1ccc(C(=O)NCCCCCCC(=O)NO)cc1 [listing 1 of 2 here]														pEC50 (MM1.S [1]; mm1.s): 5.30
N#CCCN(C(=O)CCl)c1ccc2c(c1)OCCN2CC(=O)NCCCCCCCC(=O)Nc1ccc(C(=O)NCCCCCCC(=O)NO)cc1	0.228 µM	Active	5.64	4.30	5.44	4.63	Active	Active	6.45	8.40	6.84	Active	7.15	Activity [2]: inactive; Activity [3]: inactive; Emax [6]: 67.4%; Activity [7]: Active; Activity [9]: Active; pEC50 (MM1.S [10]): 5.64; Activity [12]: 52.8%; Activity [15]: Active; Activity [17]: inactive
N#CCCN(C(=O)CCl)c1ccc2c(c1)OCCN2CC(=O)NCC(=O)Nc1ccc(C(=O)NCCCCCCC(=O)NO)cc1 [listing 2 of 2 here]	0.257 µM			4.43	4.88	4.58			6.02	8.05	6.81		7.13	pEC50 (MM1.S [1]; mm1.s): 5.63
N#CCCN(C(=O)CCl)c1ccc2c(c1)OCCN2CC(=O)NC1CCC(C(=O)Nc2ccc(C(=O)NCCCCCCC(=O)NO)cc2)CC1 (stereo not given)			5.11											
O=C(CCCCCCNC(=O)c1ccc(NC(=O)CCCCCCCNC(=O)COc2cccc3c2C(=O)N(C2CCC(=O)NC2=O)C3=O)cc1)NO (stereo not given)		inactive					inactive	inactive	4.76			inactive		Activity (MM1.S [19]): <=25%; Activity (MM1.S [20]): inactive; Activity (MDA-MB-231 [21]): <=25%; Activity (U-87 MG [22]): <=25%
N#CCCN(C(=O)CCl)c1ccc2c(c1)OCCN2CC(=O)N1CCC(C(=O)Nc2ccc(C(=O)NCCCCCCC(=O)NO)cc2)CC1	0.482 µM	Active	5.33	4.18	5.07	5.06	Active	Active	5.94	8.22	6.71	Active	7.03	Activity [2]: inactive; Activity [3]: inactive; Emax [6]: 79.8%; Activity [7]: Active; Activity [9]: Active; pEC50 (MM1.S [10]): 5.33; Activity [12]: 61.9%; Activity [15]: Active; Activity [17]: inactive
N#CCCN(C(=O)CCl)c1ccc2c(c1)OCCN2CC(=O)NCCCCCC(=O)Nc1ccc(C(=O)NCCCCCCC(=O)NO)cc1			5.13											
